Reference: ChEMBL document CHEMBL5523689, “Synthesis and antimicrobial studies of cadasides analogues via on-resin esterification” (2024)

Assays:
Format in all cases: functional
[1] = tested on: Staphylococcus aureus; experiment: Antibacterial activity against methicillin-resistant Staphylococcus aureus ATCC43300 by broth microdilution method
[2] = tested on: Staphylococcus aureus; experiment: Antibacterial activity against […] Staphylococcus aureus ATCC25923 by broth microdilution method
[3] = tested on: Bacillus pumilus; experiment: Antibacterial activity against Bacillus pumilus ATCC63202 by broth microdilution method
[4] = tested on: Pseudomonas aeruginosa; experiment: Antibacterial activity against Pseudomonas aeruginosa ATCC27853 by broth microdilution method
[5] = tested on: Escherichia coli; experiment: Antibacterial activity against Escherichia coli ATCC25922 by broth microdilution method

Row | Structure (SMILES) | MIC [1] | MIC [2] | MIC [3] | MIC [4] | MIC [5]
1 | CCCCCCCCCC(=O)NC[C@@H](C)C(=O)NCC(=O)N[C@H](CCC(=O)O)C(=O)N[C@@H](Cc1ccc(O)cc1)C(=O)N[C@@H]1C(=O)N[C@H]([C@H](C)CC)C(=O)N[C@@H](CC(=O)O)C(=O)N[C@@H]([C@@H](O)C(=O)OC)C(=O)N2CCC[C@H]2C(=O)NCC(=O)N[C@H](CCC(=O)O)C(=O)N[C@@H](CCC(=O)O)C(=O)N(C)CC(=O)O[C@@H]1C | ≥ 128 µg/mL | ≥ 128 µg/mL | ≥ 128 µg/mL | ≥ 128 µg/mL | ≥ 128 µg/mL
2 | CCCCCCCC(=O)NC[C@@H](C)C(=O)NCC(=O)N[C@H](CCC(=O)O)C(=O)N[C@@H](Cc1ccc(O)cc1)C(=O)N[C@@H]1C(=O)N[C@H]([C@H](C)CC)C(=O)N[C@@H](CC(=O)O)C(=O)N[C@@H](CC(=O)O)C(=O)N2CCC[C@H]2C(=O)NCC(=O)N[C@H](CCC(=O)O)C(=O)N[C@@H](CCC(=O)O)C(=O)N(C)CC(=O)O[C@@H]1C | ≥ 128 µg/mL | ≥ 128 µg/mL | ≥ 128 µg/mL | ≥ 128 µg/mL | ≥ 128 µg/mL
3 | CCCCCCCCC(=O)NC[C@@H](C)C(=O)NCC(=O)N[C@H](CCC(=O)O)C(=O)N[C@@H](Cc1ccc(O)cc1)C(=O)N[C@@H]1C(=O)N[C@H]([C@H](C)CC)C(=O)N[C@@H](CC(=O)O)C(=O)N[C@@H]([C@@H](O)C(=O)OC)C(=O)N2CCC[C@H]2C(=O)NCC(=O)N[C@H](CCC(=O)O)C(=O)N[C@@H](CCC(=O)O)C(=O)N(C)CC(=O)O[C@@H]1C | ≥ 128 µg/mL | ≥ 128 µg/mL | ≥ 128 µg/mL | ≥ 128 µg/mL | ≥ 128 µg/mL
4 | CCCCCCCCC(=O)NC[C@@H](C)C(=O)NCC(=O)N[C@H](CCC(=O)O)C(=O)N[C@@H](Cc1ccc(O)cc1)C(=O)N[C@@H]1C(=O)N[C@H]([C@H](C)CC)C(=O)N[C@@H](CC(=O)O)C(=O)N[C@@H]([C@@H](O)C(=O)O)C(=O)N2CCC[C@H]2C(=O)NCC(=O)N[C@H](CCC(=O)O)C(=O)N[C@@H](CCC(=O)O)C(=O)N(C)CC(=O)O[C@@H]1C | ≥ 128 µg/mL | ≥ 128 µg/mL | ≥ 128 µg/mL | ≥ 128 µg/mL | ≥ 128 µg/mL

More lines, now with the values ahead:

Row | MIC [1] | MIC [2] | MIC [3] | MIC [4] | MIC [5] | Structure (SMILES)
5 | ≥ 128 µg/mL | ≥ 128 µg/mL | ≥ 128 µg/mL | ≥ 128 µg/mL | ≥ 128 µg/mL | CCCCCCCCCC(=O)NC[C@@H](C)C(=O)NCC(=O)N[C@H](CCC(=O)O)C(=O)N[C@@H](Cc1ccc(O)cc1)C(=O)N[C@@H]1C(=O)N[C@H]([C@H](C)CC)C(=O)N[C@@H](CC(=O)O)C(=O)N[C@@H]([C@@H](O)C(=O)O)C(=O)N2CCC[C@H]2C(=O)NCC(=O)N[C@H](CCC(=O)O)C(=O)N[C@@H](CCC(=O)O)C(=O)N(C)CC(=O)O[C@@H]1C
6 | ≤ 5 µg/mL | ≤ 5 µg/mL | ≤ 5 µg/mL | ≤ 5 µg/mL | ≤ 5 µg/mL | CCCCCCCCCC(=O)N[C@@H](Cc1c[nH]c2ccccc12)C(=O)N[C@H](CC(N)=O)C(=O)N[C@@H](CC(=O)O)C(=O)N[C@@H]1C(=O)NCC(=O)N[C@@H](CCCN)C(=O)N[C@@H](CC(=O)O)C(=O)N[C@H](C)C(=O)N[C@@H](CC(=O)O)C(=O)NCC(=O)N[C@H](CO)C(=O)N[C@@H]([C@H](C)CC(=O)O)C(=O)N[C@@H](CC(=O)c2ccccc2N)C(=O)O[C@@H]1C
